Assay results as given in EP0505817A1, “Use of phosphatidylserine and its derivatives for the manufacture of a medicament for the treatment of degenerative pathologies also associated with immune disfunctions” (FIDIA S.p.A., priority 1991, dated 1992).

Test system: TNF-α
Experiment: Serum TNF induced by LPS in the mouse after phospholipid pretreatment (L-929 cytotoxicity bioassay)
Type: in vivo
Conditions: S. Thyphi LPS 5 µ i.p., blood 60' later; for TNF-α title treated: average ± SEM
Description: Utilized are: • 170 Charles River CD-1 albino male mice weighing about 25-30 g • 6 New Zealand male rabbits weighing about 2-2.5 kg.
The animals after 90' from the last phospholipidic treatment or with THIS (as indicated later-on), are treated by parenteral route with S. Thyphi or E. Coli (Sigma) lipopolysaccharide.
Particularly: • mouse: injection of 5 µg LPS i.p. (1st experiment) or 25 µg LPS i.v. (2nd experiment) the blood sample is taken after 60 min. • rabbit: injection of 1 µg LPS i.v.. The blood sample is taken after 90 minutes.
The following products are tested: • BC-PS (phosphatidylserine in the commercially available form consisting of a composition comprising: phosphatidylserine extracted from bovine brain as described in example 1) • PS (phosphatidylserine) • PC (phosphatidylcholine) • PG (phosphatidylglycerol) • DPS (lysophosphatidylserine) • PE (phosphatidylethanolamine) • […] (1-myristoyl-2-deoxi-3-glycerophospho-L-serine) The phospholipids purity and their composition are determined by thin layer bidimensional chromatography (Punzi, L. et al.: Phospholipids in inflammatory synovial effusions. Rheumatol. Int. 6, 7-11, 1986).
Phospholipids are then solubilized in 50 mM TRIS-HCl pH 7.8 and suitably sonicated.
The phospholipidic dispersion is then injected in animals under the following conditions: • mouse: BC-PS 15-30 mg/kg/die i.p. for 3 days or 30 mg/kg/die i.v. for 3 days DPS, PSS₄ 20 mg/kg/die i.p. for 3 days PS, PC, PG, PE 25 mg/kg/die i.p. for 3 days • rabbit: 30 mg/kg/die i.v. for 5 days.
LPS is then administered following the above mentioned conditions with successive blood sample for the seric TNF dosage.
The level of seric TNF was evaluated by biological dosage, using the fibroblasts line L-929 of murine sarcoma (American type culture collection). In fact TNF is cytotoxic against said line (Meager A. et al.: Assays for tumor necrosis factor and related cytokines. J. Immunol. Methods 116: 1-17, 1989).
Shortly, 5 x 10⁴ cells are cultured in 96 well plates with 0.1 ml RPMI 1640 medium containing 10 % (v/v) of bovine serum inactivated at 56 °C for 30'.
After 18 hours the medium is replaced with 0.1 ml of fresh medium, containing serial dilutions of serum samples to be tested in the presence of actinomycin D (2 µg/ml) and lithium chloride 20 mM in order to increase the method sensitivity, namely the TNF cytotoxicity (Beyaert R. et al.: Lithium chloride potentiates tumor necrosis factor-mediated cytotoxicity in vitro and in vivo. Proc. Natl. Acad. Sci. 86: 9494-9498, 1989).
An […] (4000 U/ml of TNF-α(Genzyme) is added to 3 wells in every plate and said wells are utilized as positive control in order to check the sensitivity level of the cellular line, namely to verify the specificity dosage.
As negative controls, wells containing untreated mice serum, are used.
After 18 hours the medium is sucked and replaced with 0.1 ml of a saline solution containing 30 mM of glucose and 0.45 mg/ml of MTT tetrazolium (3-[4,5-dimethylthiazol-2-yl]-2,5 diphenyl-tetrazolium bromide. Then, after 4 hours, 0.1 ml of an acid solution of isopropanol (0.08 N HCl in isopropanol) is added and the absorbance is read by using a plate spectrophotometer scanner provided with a filter specific for 570 nm absorbance.
TNF cytotoxicity is calculated, by applying the formula: [formula] TNF-α title in serum samples is expressed in unit/ml and corresponds to the inverse of the dilution bringing to 50 % of cellular survival (Meager A. et al.: Assays for tumor necrosis factor and related cytokines. J. Immunol. Methods 116: 1-17, 1989).
In order to validate the test an anti-TNF-α murine antibody (Genzyme) is used which, as foreseen (see the results) blocks completely the cytotoxicity of murine serum but not the one of rabbit serum.

Molecule: CCCCCCCCCCCCCC(=O)OCCCOP(=O)(O)OC[C@H](N)C(=O)O [PSS₄, 1-myristoyl-2-deoxi-3-glycerophospho-L-serine]
- TNF-α title treated (dose 20 mg/kg i.p. for 3 days): 50±16 (5) U/serum ml

Molecule: lysophosphatidylserine [DPS]
- Inhibition (%) (dose 20 mg/kg i.p. for 3 days): 80%
- TNF-α title treated (dose 20 mg/kg i.p. for 3 days): 45±11 (5) U/serum ml

Molecule: phosphatidylcholine [PC, reference compound]
- Inhibition (%) (dose 25 mg/kg i.p. for 3 days): 16%
- TNF-α title treated (dose 25 mg/kg i.p. for 3 days): 176±53 (12) U/serum ml

Molecule: phosphatidylethanolamine [PE]
- Inhibition (%) (dose 25 mg/kg i.p. for 3 days): 56%
- TNF-α title treated (dose 25 mg/kg i.p. for 3 days): 137±46 (6) U/serum ml

Molecule: phosphatidylglycerol [PG, reference compound]
- Inhibition (%) (dose 25 mg/kg i.p. for 3 days): inactive
- TNF-α title treated (dose 25 mg/kg i.p. for 3 days): 238±37 (18) U/serum ml

Molecule: phosphatidylserine [PS]
- Inhibition (%) (dose 25 mg/kg i.p. for 3 days): 68%
- TNF-α title treated (dose 25 mg/kg i.p. for 3 days): 81±21 (9) U/serum ml
